According to patent US20260274814A1, “THIENYL COMPOUNDS FOR THE TREATMENT OF A CENTRAL NERVOUS SYSTEM DISEASE OR DISORDER” (Coreterra Therapeutics, Inc., priority 2023, published 2026):
Where a name gives a salt, the structure may show the parent alone. Read-outs that look alike come from different tables or passages of the source.

System: mice
Experiment: Neuropharmacological Assay (SmartCube): automated behavioral signature of compound-treated mice compared with a database of reference drug classes
Assay type: in vivo
Conditions: for minimal effective dose: Mus musculus, ip, read-out: MED; for minimal effective dose / MED: minimal effective dose: dose having 45% or more total activity in SmartCube, i.p., that dose is shown
Procedure, shortened: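 Probabilities of matching each neuropharmacological class (e.g. anxiolytic, antidepressant) come from algorithmic analysis of digitally recorded behaviour, reported for 3.0 mg/kg. Compounds were given intraperitoneally in a Pharmasolve/PEG/propylene glycol vehicle 15 min pre-test. Minimal effective dose is the lowest dose reaching 45% or more total activity.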

[1] = SmartCube class probability, 3.0 mg/kg i.p., 15 min before test
[2] = SmartCube class probability, 3.0 mg/kg i.p., 15 min before test, hydrochloride, 3 mg/kg
[3] = SmartCube class probability, 3.0 mg/kg i.p., 15 min before test, 3 mg/kg
[4] = SmartCube probability class, 3.0 mg/kg dose, i.p. 15 min before the behavioral test
[5] = SmartCube probability class, 3.0 mg/kg dose, i.p. 15 min before the behavioral test, hydrochloride, 3 mg/kg

CNC1CCc2scc(C3CCC3)c2C1 (single isomer, unassigned) [Compound 267, 3-cyclobutyl-N-methyl-4,5,6,7-tetrahydrobenzothiophen-5-amine hydrochloride]
ND (^ <4%): AD [1] | AG [1] | AN [1] | AP [1] | AX [1] | CE [1] | HL [1] | MS [1] | PS [1] | SH [1]
+ (≥4%): UK [2]
> 3 mg/kg: minimal effective dose (if only one dose tested)

CNC1CCc2scc(C3CCC3)c2C1 (single isomer, unassigned) [Compound 268, 3-cyclobutyl-N-methyl-4,5,6,7-tetrahydrobenzothiophen-5-amine hydrochloride]
ND (^ <4%): AD [1] | AG [1] | AN [1] | AP [1] | AX [1] | CE [1] | HL [1] | MS [1] | PS [1] | SH [1] | UK [2]
>3 mpk: MED (if only one dose tested)

CC1(N2CCCC2)CCc2ccsc2C1 (single isomer, unassigned) [Compound 275, 1-(6-methyl-4,5,6,7-tetrahydrobenzo[b]thiophen-6-yl)pyrrolidine]
++++ (≥74%): PS [3]
3 mg/kg: minimal effective dose (if only one dose tested)
ND (^ <4%): AD [1] | AG [1] | AN [1] | AP [1] | CE [1] | HL [1] | MS [1] | SH [1] | UK [1] | AX [3]

CC1(N2CCCC2)CCc2ccsc2C1 (single isomer, unassigned) [Compound 276, 1-(6-methyl-4,5,6,7-tetrahydrobenzo[b]thiophen-6-yl)pyrrolidine]
++++ (≥74%): AX [3]
ND (^ <4%): AD [1] | AG [1] | AN [1] | AP [1] | CE [1] | HL [1] | MS [1] | SH [1] | UK [1] | PS [3]
3 mpk: MED (if only one dose tested)

NC1CCc2scc(C3CC3)c2C1 (single isomer, unassigned) [Compound 277, 3-cyclopropyl-4,5,6,7-tetrahydrobenzothiophen-5-amine hydrochloride]
> 3 mg/kg: minimal effective dose (if only one dose tested)
ND (^ <4%): AD [1] | AG [1] | AN [1] | AP [1] | AX [1] | CE [1] | HL [1] | MS [1] | PS [1] | SH [1]
+ (≥4%): UK [1]

NC1CCc2scc(C3CC3)c2C1 (single isomer, unassigned) [Compound 278, 3-cyclopropyl-4,5,6,7-tetrahydrobenzothiophen-5-amine hydrochloride]
+ (≥4%): UK [1]
>3 mpk: MED (if only one dose tested)
ND (^ <4%): AD [1]

CCc1csc2c1CC(N)CC2 (single isomer, unassigned) [Compound 279, 3-ethyl-4,5,6,7-tetrahydrobenzothiophen-5-amine hydrochloride]
++ (≥24%): UK [5]
ND (^ <4%): AD [4] | AG [4] | AN [4] | AP [4] | AX [4] | CE [4] | HL [4] | MS [4] | PS [4] | SH [4]
3 mg/kg: minimal effective dose (if only one dose was tested)

CCc1csc2c1CC(N)CC2 (single isomer, unassigned) [Compound 280, 3-ethyl-4,5,6,7-tetrahydrobenzothiophen-5-amine hydrochloride]
3 mpk: MED (if only one dose was tested)
ND (^ <4%): AD [4] | AG [4] | AN [4] | AP [4] | AX [4] | CE [4] | HL [4] | MS [4] | PS [4] | SH [4]
+++ (≥49%): UK [5]

CC1(N)CCc2sccc2C1 (single isomer, unassigned) [Compound 281, 5-methyl-4,5,6,7-tetrahydrobenzo[b]thiophen-5-amine hydrochloride]
3 mg/kg: minimal effective dose (if only one dose was tested)
ND (^ <4%): AG [4] | AN [4] | CE [4] | HL [4] | MS [4] | PS [4] | SH [4] | UK [4]
++++ (≥74%): AD [4]
+ (≥4%): AP [5] | AX [5]

CC1(N)CCc2sccc2C1 (single isomer, unassigned) [Compound 282, 5-methyl-4,5,6,7-tetrahydrobenzo[b]thiophen-5-amine hydrochloride]
ND (^ <4%): AG [4] | AN [4] | CE [4] | HL [4] | MS [4] | PS [4] | SH [4] | UK [4] | AP [5] | AX [5]
3 mpk: MED (if only one dose was tested)
++++ (≥74%): AD [4]

CC1(N2CCCC2)CCc2sccc2C1.Cl (single isomer, unassigned) [Compound 283, 1-(5-methyl-4,5,6,7-tetrahydrobenzo[b]thiophen-5-yl)pyrrolidine hydrochloride]
+ (≥4%): UK [5]
3 mg/kg: minimal effective dose (if only one dose was tested)
ND (^ <4%): AD [4] | AG [4] | AN [4] | AP [4] | AX [4] | CE [4] | HL [4] | MS [4] | PS [4] | SH [4]

CC1(N2CCCC2)CCc2sccc2C1.Cl (single isomer, unassigned) [Compound 284, 1-(5-methyl-4,5,6,7-tetrahydrobenzo[b]thiophen-5-yl)pyrrolidine hydrochloride]
++ (≥24%): UK [5]
ND (^ <4%): AD [4] | AG [4] | AN [4] | AP [4] | AX [4] | CE [4] | HL [4] | MS [4] | PS [4] | SH [4]
3 mpk: MED (if only one dose was tested)

CNC1COc2scc(C(F)(F)F)c2C1 (single isomer, unassigned) [Compound 289, N-methyl-5-(trifluoromethyl)-3,4-dihydro-2H-thieno[2,3-b]pyran-3-amine hydrochloride]
> 3 mg/kg: minimal effective dose (if only one dose was tested)
+ (≥4%): UK [4]
ND (^ <4%): AD [4] | AG [4] | AN [4] | AP [4] | AX [4] | CE [4] | HL [4] | MS [4] | PS [4] | SH [4]

CNC1COc2scc(C(F)(F)F)c2C1 (single isomer, unassigned) [Compound 290, N-methyl-5-(trifluoromethyl)-3,4-dihydro-2H-thieno[2,3-b]pyran-3-amine hydrochloride]
ND (^ <4%): AD [4]
+ (≥4%): UK [4]
>3 mpk: MED (if only one dose was tested)

CCC1(NC)CCc2sccc2C1 (single isomer, unassigned) [Compound 291, 5-ethyl-N-methyl-6,7-dihydro-4H-benzothiophen-5-amine hydrochloride]
ND (^ <4%): AD [4] | AG [4] | AN [4] | AP [4] | AX [4] | CE [4] | HL [4] | MS [4] | PS [4] | SH [4]
> 3 mg/kg: minimal effective dose (if only one dose was tested)
+ (≥4%): UK [5]

CCC1(NC)CCc2sccc2C1 (single isomer, unassigned) [Compound 292, 5-ethyl-N-methyl-6,7-dihydro-4H-benzothiophen-5-amine hydrochloride]
++ (≥24%): UK [5]
ND (^ <4%): AD [4] | AG [4] | AN [4] | AP [4] | AX [4] | CE [4] | HL [4] | MS [4] | PS [4] | SH [4]
>3 mpk: MED (if only one dose was tested)
